Source: patent US20210379063A1, “ORAL AMINODIHYDROPHTHALAZINEDIONE COMPOSITIONS AND THEIR USE IN THE TREATMENT OF NON-VIRAL HEPATITIS” (Immunopharma Plus D.O.O., priority 2018, published 2021)
Several values for one entry are separate records, joined by “and”; a condition that tells them apart may be missing. Equal entries are not always repeated. Where two headings read alike, the source gives them in different places.

Assays:
[1] = Method: Title: FaSSGF: Fasted State Simulating Gastric Fluid
Preparation FaSSGF (for 2000 ml)
Name: FeSSGF: Fed State Simulating Gastric Fluid
Name: FaSSIF Fasted State Simulating Intestinal Fluid
Name: FeSSIF Fed State Simulating Intestinal Fluid
For preparation of 2 L media
Name: SCoF (Simulated Colonic Fluid)
Preparation of 100 ml solution
Prior to testing • Lactobacilli drops (100 million per dissolution/20 million per permeation donor compartment) added
Each presented dissolution data is a summary of 3 results.

[2] = test system: porcine large intestine (colon); test: Porcine large intestine permeability, Franz cell; conditions: for concentration in receptor comp, large intestine, AVG / concentration in receptor compartment, large intestine: 10 mM donor solution; for concentration in receptor compartment, large intestine: single chambers
Method: The intestine was prepared so the mucous side will be facing the donor compartment.

[3] = test system: hepatitis caused by pesticides
Text: Clinically, this is manifested by pallor, fatigue, shortness of breath on exertion, hypoxia of the organs, respectively, and of the organism as a whole. The lipid peroxidation that develops at the same time causes tissue damage, and in response, macrophages infiltrate and generate oxygen radicals and pro-inflammatory cytokines (TNF, IL, etc.), thereby contributing their destructive potential to the development of the pathological process.

[4] = test system: toxic hepatitis caused by Acetaminophen; conditions: for ALT / AST / AST/ALT / GTP / Biochemiluminescence of blood plasma (BCL, quant): Acetaminophen + Tamerit
Method: The experiment was carried out on 45 adult male outbred white rats weighing 288.5±12.9 g, in accordance with the recommendations of the international ethics committees on the humane treatment of laboratory animals (EU Council Directive 86/609 EEC dated Nov. 24, 1986). To create an experimental model, an aqueous solution of Acetaminophen was administered intragastrically using a probe at a dosage of 110 mg/kg of body weight, which is about 2 times higher than the maximum allowable daily dose in humans. […] The drug was administered intragastrically, using a probe, in the form of an aqueous solution

[5] = test system: reparative liver regeneration after partial hepatectomy
Text: Reparative liver regeneration was caused by the removal of ⅔ mass of the organ—partial hepatectomy by G. M. Higgis, R. M. Anderson.

[6] = test system: Toxic hepatopathy degree II
Method: The patient received standard hepatic therapy: Duphalac 50 ml 3 times a day, Hepasol A 1000 ml, Heptral 800 mg. Detoxification therapy was carried out. […] The patient was monitored for another 1 month in a poison center.

porcine stomach (cardia) = conditions: 10 mM donor solution
porcine small intestine = conditions: for concentration in receptor compartment, small intestine, AVG / concentration in receptor compartment, small intestine: 10 mM donor solution; for concentration in receptor compartment, small intestine: single chambers
Remark: listed apart in the source
Method: Porcine Small Intestinal (SI) Permeability Procedure • Full thickness pig small intestinal delivered to Solubest on the day of the experiment. • Experiments were carried out on 6 slices 2 cm*2 cm with full thickness pig small intestinal sample • The intestinal was prepared so brush border side is facing the donor compartment. • According to Solubest protocol the excess mucus and connective tissue were removed • The receiver compartment contains 0.01M Phosphate Buffer pH 7.4 (PBS). • Receiver's samples were withdrawn at 5 time points (30 min, 60 min, 120 min, 4 hours and 6 hours). • Water pump was set to temp 38±1° C. in order to keep fixed temp in receptor department at 37±1° C.

macrophages = conditions: cited from earlier work
[7] = per os, enteric coated tablets, with standard hepatic therapy

Nc1cccc2c(=O)[n-][nH]c(=O)c12.[Na+] [Tamerit, aminodihydrophthalazinedione sodium]
Dissolution, % ([1]; FaSSGF pH 1.6, 15 min): 88.24% | Dissolution, % ([1]; FaSSGF pH 1.6, 30 min): 90.68% | Dissolution, % ([1]; FaSSIF pH 6.5, 30 min, sodium): 98.62% | Dissolution, % ([1]; FaSSIF pH 6.5, 60 min): 103.11% | Dissolution, % ([1]; FaSSIF pH 6.5, 90 min): 102.16% | Dissolution, % ([1]; FaSSIF pH 6.5, 120 min): 102.37% | Dissolution, % ([1]; FaSSIF pH 6.5, 180 min): 103.78% | Dissolution, % ([1]; FeSSCoF pH 6.0, 15 min, sodium): 90% and 90.07% | Dissolution, % ([1]; FeSSCoF pH 6.0, 2 hr): 89.21% | Dissolution, % ([1]; FeSSCoF pH 6.0, 4 hr, sodium): 100% and 102.12% | Dissolution, % ([1]; FeSSCoF pH 6.0, 24 hr): 95.77% | Dissolution, % ([1]; FeSSGF pH 5.0, 15 min): 86.83% | Dissolution, % ([1]; FeSSGF pH 5.0, 30 min): 77.65% | Dissolution, % ([1]; FeSSGF pH 5.0, 45 min): 75.6% | Dissolution, % ([1]; FeSSGF pH 5.0, 90 min): 79.42% | Dissolution, % ([1]; FeSSIF pH 5.0, 30 min): 79.65% | Dissolution, % ([1]; FeSSIF pH 5.0, 60 min): 69.28% | Dissolution, % ([1]; FeSSIF pH 5.0, 90 min, sodium): 90% and 87.40% | Dissolution, % ([1]; FeSSIF pH 5.0, 120 min): 84.48% | Dissolution, % ([1]; FeSSIF pH 5.0, 180 min): 88.50% | pH at which Tamerit is the most soluble ([1]; Tamerit powder dissolution, FIG. 2): 6.5 | stability ([1]; colonic conditions): very stable | stability ([1]; fast and fed conditions of the small intestinal): quite stable | stability ([1]; fast and fed gastric conditions): sufficient stability | dissolution ([1]; fast gastric media): ~90% | dissolution ([1]; fed gastric media): 80-90% | permeability through large intestine tissue, in words [2]: good permeability | concentration in receptor comp, large intestine, AVG ([2]; 0 min): 0 ng/mL | concentration in receptor compartment, large intestine ([2]; 0 min): 0 ng/mL | concentration in receptor comp, large intestine, AVG ([2]; 30 min): 5000 ng/mL | concentration in receptor comp, large intestine, AVG ([2]; 60 min): 7000 ng/mL | concentration in receptor comp, large intestine, AVG ([2]; 120 min): 17000 ng/mL | concentration in receptor comp, large intestine, AVG ([2]; 240 min): 35000 ng/mL | concentration in receptor compartment, large intestine ([2]; 240 min, sodium): 30600 ng/mL and 25000 ng/mL and 36400 ng/mL and 49000 ng/mL | concentration in receptor comp, large intestine, AVG ([2]; 360 min): 48000 ng/mL | concentration in receptor comp, large intestine, AVG ([2]; 720 min): 90000 ng/mL | time to reach steady state of permeation ([2]; large intestinal tissue): four | Recovery from donor comp, % ([2]; large intestine, 0 min): 0.00% | mg in receptor comp ([2]; large intestine, 0 min): 0.000 mg | Recovery from donor comp, % ([2]; large intestine, 30 min): 0.45% | mg in receptor comp ([2]; large intestine, 30 min): 0.026 mg | Recovery from donor comp, % ([2]; large intestine, 60 min): 0.63% | mg in receptor comp ([2]; large intestine, 60 min): 0.036 mg | Recovery from donor comp, % ([2]; large intestine, 120 min): 1.46% | mg in receptor comp ([2]; large intestine, 120 min): 0.084 mg | Recovery from donor comp, % ([2]; large intestine, 240 min): 3.07% | mg in receptor comp ([2]; large intestine, 240 min): 0.176 mg | Recovery from donor comp, % ([2]; large intestine, 360 min): 4.20% | mg in receptor comp ([2]; large intestine, 360 min): 0.242 mg | Tamerit Permeability vs Propranolol Permeability ([2]; large intestine, FIG. 11): permeates better than propranolol | permeation compared with Propranolol ([2]; large intestine, after 4 hours): as good as Propranolol | AST and ALT ([3]; after the end of treatment, AST-80, ALT-98 before): within normal limits | Hemoglobin ([3]; at discharge after enteric-coated 100 mg tablets, 89 before): 120 | patient's condition ([3]; third day from the start of treatment): improved | ALT ([4]; 3rd day): 17.45 ± 1.3 U/L | AST ([4]; 3rd day): 23.61 ± 1.2 U/L | AST/ALT ([4]; 3rd day): 1.35 ± 0.03 | GTP ([4]; 3rd day): 35.8 ± 1.2 U/L | ALT ([4]; 5th day): 12.2 ± 0.9 U/L | AST ([4]; 5th day): 15.0 ± 1.0 U/L | AST/ALT ([4]; 5th day): 1.24 ± 0.01 | GTP ([4]; 5th day): 33.8 ± 0.9 U/L | ALT ([4]; 7th day): 12.0 ± 0.8 U/L | AST ([4]; 7th day): 16.01 ± 2.0 U/L | AST/ALT ([4]; 7th day): 1.33 ± 0.02 | GTP ([4]; 7th day): 30.8 ± 1.8 U/L | ALT ([4]; 12th day): 18.0 ± 1.8 U/L | AST ([4]; 12th day): 22.1 ± 1.5 U/L | AST/ALT ([4]; 12th day): 1.22 ± 0.04 | GTP ([4]; 12th day): 29.4 ± 1.5 U/L | Biochemiluminescence of blood plasma (BCL, quant) ([4]; 3 days): 213.0 ± 4.0 quant | Biochemiluminescence of blood plasma (BCL, quant) ([4]; 12 days): 215.6 ± 5.0 quant | signs of toxic hepatitis ([4]; rats treated with Tamerit intragastrically): less pronounced | Mitotic index, % ([5]; hepatectomy 4 hours + Tamerit): 2 ± 0.8 % | Nuclear cytoplasmic index ([5]; hepatectomy 4 hours + Tamerit): 0.40 ± 0.005 | Number of binuclear cells, % ([5]; hepatectomy 4 hours + Tamerit): 16.6 ± 1.69% | The size of the nucleus of hepatocytes, μm ([5]; hepatectomy 4 hours + Tamerit): 8.0 ± 0.26 μm | Mitotic index, % ([5]; hepatectomy 17 hours + Tamerit): 5.5 ± 1.3 % | Nuclear cytoplasmic index ([5]; hepatectomy 17 hours + Tamerit): 0.319 ± 0.01 | Number of binuclear cells, % ([5]; hepatectomy 17 hours + Tamerit): 29.83 ± 2.5 % | The size of the nucleus of hepatocytes, μm ([5]; hepatectomy 17 hours + Tamerit): 7.67 ± 0.28 μm | increase of the number of hepatocytes that divide by mitosis ([5]; regenerating liver): by an order of magnitude | adverse effects ([6]; during the use of Tamerit): no adverse effects were noted | blood biochemical parameters [6, 7]: fully normalized | relief of symptoms of intoxication [6, 7]: highly effective | concentration in receptor compartment, Tamerit stomach, AVG (porcine stomach (cardia); 0 min): 0 ng/mL | concentration in receptor compartment, Tamerit stomach (porcine stomach (cardia); 0 min, single chambers): 0 ng/mL | concentration in receptor compartment, Tamerit stomach, AVG (porcine stomach (cardia); 15 min): 50 ng/mL | concentration in receptor compartment, Tamerit stomach, AVG (porcine stomach (cardia); 30 min): 41 ng/mL | concentration in receptor compartment, Tamerit stomach, AVG (porcine stomach (cardia); 45 min): 69 ng/mL | concentration in receptor compartment, Tamerit stomach, AVG (porcine stomach (cardia); 90 min): 85 ng/mL | concentration in receptor compartment, Tamerit stomach, AVG (porcine stomach (cardia); 120 min): 104 ng/mL | concentration in receptor compartment, small intestine, AVG (porcine small intestine; 0 min): 0 ng/mL | concentration in receptor compartment, small intestine (porcine small intestine; 0 min): 0 ng/mL | concentration in receptor compartment, small intestine, AVG (porcine small intestine; 30 min): 1000 ng/mL | concentration in receptor compartment, small intestine, AVG (porcine small intestine; 60 min): 3000 ng/mL | concentration in receptor compartment, small intestine (porcine small intestine; 60 min, sodium): 3500 ng/mL and 2400 ng/mL | concentration in receptor compartment, small intestine, AVG (porcine small intestine; 120 min): 6000 ng/mL | concentration in receptor compartment, small intestine (porcine small intestine; 120 min, sodium): 5400 ng/mL and 5600 ng/mL and 9100 ng/mL and 5100 ng/mL | concentration in receptor compartment, small intestine, AVG (porcine small intestine; 240 min): 12000 ng/mL | concentration in receptor compartment, small intestine, AVG (porcine small intestine; 360 min): 23000 ng/mL | concentration in receptor compartment, small intestine (porcine small intestine; 360 min, sodium): 26400 ng/mL and 19500 ng/mL and 28700 ng/mL and 19000 ng/mL | Tamerit Permeability vs Propranolol Permeability (porcine small intestine; small intestine, FIG. 11): permeates better than propranolol | permeation compared with Propranolol (porcine small intestine; small intestine, after 4 hours): three time better than Propranolol | state of a solution containing 10 mM: supersaturated solution | duration of reversible suppression of macrophage hyperactivity (macrophages; acute inflammatory diseases): 10 to 12 h | excretion (macrophages): rapidly excreted | toxicity (macrophages): extremely low toxicity
